24 compounds from PubChem BioAssay (NCI) can be followed below.

Assay in all cases: NCI anticancer screen, dose series, 48 h
Assay [1] has as its system NCI-H460 lung.
Assay [2] concerns ACHN renal.
Assay [3] concerns MDA-MB-435.
The test system of assay [4] is RPMI-8226 leukemia.
The subject of assay [5] is LOX IMVI melanoma.
For assay [6], the system named is MDA-MB-231 breast.
Assay [7] relates to UACC-257 melanoma.
Assay [8] deals with HOP-62 NSCLC.
Assay [9] concerns HCT-15 colon.
Assay [10] concerns HS 578T breast.

Where “and” joins values, the source holds several entries; their conditions need not be identical. Equal values may be shown once.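 Method: 48-hour compound exposure of cells in 96-well plates, five concentrations, linear interpolation of endpoints. GI50: concentration for 50% inhibition of growth. TGI: concentration producing complete growth inhibition.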

Turning to `CC1(C)N=C(N)N=C(N)N1c1ccc(OCC(=O)Nc2ccc(S(=O)(=O)F)cc2Cl)c(Cl)c1`, the GI50 in [1] is 0.591 µM; in assay [2], 5.57 µM; in assay [3], 3.36 µM; in [4], 64.9 µM; in assay [5] it was 1.12 µM; in assay [6] it was 54.4 µM. The figures for the GI50 in [7], in assay [8] and in assay [9] were > 100 µM, 7.81 µM and 4.15 µM, respectively. Besides, the TGI in [1], in assay [2], in [3], in assay [4], in [5] and in assay [6] was > 100 µM in each case. In addition, the TGI in [7], in assay [8] and in [9] was > 100 µM in each case.

In the case of `CC(=O)OCc1nnn2c1C(OC(C)=O)CC2` (centres undefined), the TGI in assay [1], in assay [2], in assay [4], in assay [7] and in assay [9] was > 100 µM in each case.

With `CNC(=O)/C=C/C1=CN2C(=O)c3ccc(C)c(O)c3NC(OC)C2C1` (centres undefined), the TGI was < 0.0264 µM in assay [10]; 1.03 µM in assay [1]; < 0.0176 µM in assay [3]; 16.2 µM in assay [4]; 4.19 µM in assay [5]; < 0.0397 µM in assay [6]. The results for the TGI in [7], in assay [8] and in assay [9] were < 0.0169 µM, 0.328 µM and 4.48 µM, respectively.

In the case of `CC1(C)CC[C@]23CC[C@]4(C)[C@H](CC[C@@H]5[C@@]6(C)CCCNC(C)(C)[C@@H]6CC[C@]54C)[C@H]2[C@H]1OC3`, the GI50 was 1.96 µM in assay [10]; 0.646 µM in assay [1]; 1.71 µM in [2]; 1.65 µM in assay [3]; 1.94 µM in assay [4]; 1.66 µM in [6]. The GI50 in assay [7] was 1.92 µM; in [8] it was 1.91 µM; in [9], 1.31 µM. Besides, the TGI stood at 4.69 µM in assay [10]; 2.2 µM in assay [1]; 3.08 µM in [2]; 3.02 µM in assay [3]; 4.58 µM in [4]; 3.2 µM in [6]. Moreover, the TGI in assay [7] came to 3.87 µM; in [8], 3.75 µM; in assay [9], 2.68 µM.

For `O=C(O)C1=Cc2cccc3cccc(c23)C1=O`, the TGI in assay [1], in [2], in assay [4], in assay [5], in assay [7] and in [8] was > 100 µM throughout. Also, the TGI in assay [9] was > 100 µM.

`COC(=O)C1c2cc3c(c(O)c2CCC1(C)O)C(=O)c1c(O)cc2c(c1C3=O)OC1OC2(C)C(O)C(N(C)C)C1O` (centres undefined): the TGI in [10] is 3.77 µM; in assay [1], 2.11 µM; in [2], 1.17 µM; in [3], 2.17 µM; in assay [5], 1.4 µM; in assay [6], 1.69 µM. Besides, the TGI in assay [7] came out at 0.739 µM; in [8], 1.58 µM; in [9], 1.7 µM.

Turning to `CCCCCc1cc(/C=C2/N=C(c3ccc[nH]3)C=C2OC)[nH]c1C`, the TGI in assay [10] was 0.0191 µM; in assay [1], 1.26 µM; in assay [2], 0.113 µM; in assay [3], 0.187 µM; in assay [6], 0.0999 µM; in assay [7] it was 0.855 µM. Also, the TGI in assay [8] was determined as 0.362 µM; in assay [9] it was 1.05 µM.

Regarding `Clc1nc(Cl)c2ncn(-c3ccccc3)c2n1`, the GI50 in assay [10] is 7.13 µM; in assay [1], 6.24 µM; in [2], 1.96 µM; in assay [3], 3.32 µM; in assay [5], 1.67 µM; in assay [6] it was 10.7 µM. The GI50 in assay [7] was 6.86 µM; in [9] it was 3.42 µM. Moreover, the TGI in [10] worked out at 64.9 µM; in assay [1] it was 23.5 µM; in [2] it was 4.12 µM; in [3], 13.2 µM; in [5], 3.28 µM; in assay [6], 24.5 µM. Also, the TGI in [7] was 20.2 µM; in [9], 16 µM.

`O=C1CCc2cc(Br)ccc2O1`: the TGI in assay [10], in assay [1], in assay [2], in assay [3], in [4] and in [5] was > 100 µM each time. For the same compound, the TGI in assay [7], in [8] and in assay [9] was > 100 µM each time.

Take `CCOC(=O)CCc1c(C)c2c(OC)cc(OC)cc2oc1=O`: the TGI in [1], in [2], in assay [5], in [7] and in [8] was > 100 µM each time.

`Cc1ccc2ncnc(N(C)C3CCCCC3)c2c1`: the GI50 in [10] is > 100 µM; in [1], 25.3 µM; in [2], 29 µM; in assay [3], 23 µM; in assay [4] it was 6.11 µM; in [5], 21.7 µM. In addition, the values for the GI50 in [8] and in assay [9] were 28.7 µM and 27 µM, respectively. For the same compound, the TGI in [10] was > 100 µM; in assay [1] it was > 100 µM; in [2], > 100 µM; in [3] it was 68.2 µM; in assay [4] it was 28.7 µM; in [5] it was 68.3 µM. Moreover, the TGI was > 100 µM in assay [8] and 88.7 µM in assay [9].

Take `CC[O-].CC[O-].O=C1C=C([O-])C(=O)c2ccccc21.O=C1C=C([O-])C(=O)c2ccccc21.[Ti+4]`: the GI50 in [1] is 7.76 µM; in [2] it was 71 µM; in assay [4], 8.08 µM; in [5], 5.25 µM; in [7], > 27.9 µM; in [8] it was > 100 µM. Moreover, the GI50 in assay [9] was 60.6 µM. For the same compound, the TGI is > 92.9 µM in [1]; > 100 µM in assay [2]; > 100 µM in [4]; > 100 µM in assay [5]; > 100 µM in assay [7]; > 100 µM in assay [8]. Moreover, the TGI in [9] is > 100 µM.

Turning to `Cc1[nH]c(=O)n2c(C)nnc2c1C(=O)O`, the TGI in assay [1], in [2], in [4], in assay [5], in assay [8] and in [9] was > 100 µM each time.

For `CCN1CCN(Cc2ccc(NC(=O)Nc3nc(-c4cc(OC)c(OC)c(OC)c4)cs3)cc2C(F)(F)F)CC1`, the GI50 in assay [10] was 1.65 µM; in [1], 1.65 µM; in [2] it was 1.91 µM; in assay [3], 1.5 µM; in assay [4], 1.63 µM; in [5] it was 2.18 µM. The GI50 in assay [6] was 1.6 µM; in assay [7] it was 1.69 µM; in assay [9], 1.41 µM. Besides, the TGI in [10] is 5.04 µM; in [1] it was 3.2 µM; in [2], 4.1 µM; in assay [3] it was 2.82 µM; in assay [4] it was 4.24 µM; in assay [5], 7.14 µM. Besides, the TGI was 3.46 µM in assay [6], 3.08 µM in assay [7] and 3.55 µM in [9].

Consider `CCCCCCCCCCCCC(O)C1CCC(C(O)CCCCC(O)CCCCCC2CC(CC(C)=O)C(=O)O2)O1` (centres undefined), for which the TGI is 3.8 µM in assay [10]; > 43.8 µM in assay [1]; 26.1 µM in assay [2]; 4.73 µM and 18.5 µM in assay [4]; 2.24 µM and 9.49 µM in [5]; 7.38 µM in assay [6]. The TGI in [7] is 5.08 µM and 6.25 µM; in assay [8], 19.1 µM; in assay [9] it was 5.23 µM and 17.9 µM. For the same compound, the GI50 in [4] was 1.28 µM and 0.367 µM; in assay [5], 1.06 µM; in [7], 1.13 µM; in assay [8], 2.74 µM; in assay [9] it was 2.56 µM.

For the compound `Cc1ccc(NC(=S)NNC(=S)Nc2ccc(C)cc2)cc1`, the GI50 is 4.6 µM in assay [10]; 3.89 µM in assay [1]; 9.7 µM in [2]; 2.5 µM in assay [3]; 4.46 µM in [4]; 6.13 µM in assay [5]. Besides, the GI50 in [6] was 65.4 µM; in [7] it was 7.13 µM; in assay [9], 5.15 µM. The TGI was > 100 µM in assay [10]; > 100 µM in assay [1]; > 100 µM in assay [2]; > 100 µM in assay [3]; 65.3 µM in [4]; > 100 µM in assay [5]. Moreover, the TGI in [6], in assay [7] and in assay [9] was > 100 µM throughout.

As for `OC1(C(Sc2ccccc2)Sc2ccccc2)CCCCCC1`, the TGI in [1] was 75.5 µM; in [2] it was 64.5 µM; in assay [4], 52.4 µM; in assay [5], 40 µM; in assay [7] it was 69.4 µM; in assay [8], 59.5 µM. The TGI in assay [9] came to 60.5 µM.

As to `CCCCCCCCCN=C(N)c1ccc(N2CCN(c3ccc(C(N)=NCCCCCCCCC)cc3)CC2)cc1`, the GI50 in [1] is 1.61 µM; in assay [2], 2.19 µM; in assay [3], 1.74 µM; in assay [4], 1.96 µM; in assay [5] it was 2.1 µM; in [6], 1.41 µM. Also, the GI50 was 1.2 µM in assay [7], 2.72 µM in assay [8] and 2.05 µM in assay [9]. For the same compound, the TGI in [1] is 5.13 µM; in assay [2] it was 12.7 µM; in [3], 5.35 µM; in assay [4], > 50 µM; in assay [5], 10.7 µM; in assay [6], 5.59 µM. Moreover, the TGI in assay [7] was 3.08 µM; in assay [8] it was > 50 µM; in [9], 13.5 µM.

Regarding `COC(=O)c1cc(O)ccc1O`, the TGI in assay [1], in assay [2], in [4], in [5], in assay [7] and in [8] was > 100 µM in each case. The TGI in assay [9] was > 100 µM.

Take `CC(=O)OC(C(=O)[O][Ge]([CH3])([CH3])[CH3])c1ccccc1` (centres undefined): the GI50 in assay [1], in [2], in [5], in assay [7], in assay [8] and in [9] was > 100 µM each time. For the same compound, the TGI in assay [1], in [2], in assay [5], in assay [7], in assay [8] and in [9] was > 100 µM in each case.

Turning to `CC(=O)Oc1ccc2c(=O)c(C(C)=O)coc2c1`, the TGI in [1], in assay [2], in assay [4], in assay [5], in assay [7] and in assay [8] was > 100 µM in each case. Further, the TGI in [9] was > 100 µM.

In the case of `CSC1=CC(=O)c2ccccc2C1=O`, the GI50 in [1] is 31.3 µM; in assay [2], 1.66 µM; in [3], 3.02 µM; in assay [4], 2.61 µM; in [5], 1.75 µM; in assay [6], 1.29 µM. The results for the GI50 in assay [7], in assay [8] and in assay [9] were 2.04 µM, 16.7 µM and 11.6 µM, respectively. The TGI was > 100 µM in assay [1]; 3.07 µM in assay [2]; 9.73 µM in assay [3]; 7.96 µM in [4]; 3.92 µM in [5]; 3.02 µM in assay [6]. Further, the TGI worked out at 4.36 µM in assay [7], 31.8 µM in assay [8] and 26.1 µM in assay [9].

Take `CCOC(=O)C(C(=O)OCC)=C1C=C(c2ccccc2)c2ccccc21`: the TGI in [1] is > 100 µM; in [2] it was > 100 µM; in [4], 89.4 µM; in assay [5] it was > 100 µM; in [7], > 100 µM; in assay [8], > 100 µM. Moreover, the TGI in assay [9] is > 100 µM.

Regarding `CCCCCOC(=O)Nc1nc(=O)n(C2OC(C)C(O)C2O)cc1F` (centres undefined), the GI50 in [3], in [7], in assay [8] and in assay [9] was > 10000 µM throughout. The TGI in [3], in assay [7], in assay [8] and in [9] was > 10000 µM each time.
